Source: ChEMBL document CHEMBL5154842, “Unique Carbazole-Oxadiazole Derivatives as New Potential Antibiotics for Combating Gram-Positive and -Negative Bacteria” (J Med Chem, 2022)
Converted amounts (≈) assume the structure as drawn. The source made the active and inactive calls. The calls are words filed in the database; no cut-off is given here.

Experiments:
Staphylococcus aureus [1] = test: Antibacterial activity against methicillin-resistant Staphylococcus aureus N315 assessed as inhibition of bacterial growth at 0.25 to 64 ug/ml incubated for 24 hrs by Alamar blue assay; type: functional, organism-based; conditions: dose 0.25-64 µg/ml
Cell membrane [2] = test: Induction of cell membrane disruption in Pseudomonas aeruginosa ATCC 27853 assessed as increase in protein leakage at 0.5 to 6 ug/ml incubated under agitation condition by Bradford assay; conditions: dose 0.5-6 µg/ml
Pseudomonas aeruginosa [3] = test: Antibacterial activity against Pseudomonas aeruginosa ATCC 27853 assessed as inhibition of bacterial growth incubated for 24 hrs by CLSI protocol based two fold serial dilution method; type: functional
[4] = Hemolytic activity in human RBC assessed as hemolysis at 1 to 32 ug/ml measured after 60 mins by microplate reader assay relative to control; type: toxicity, cell-based, Erythrocyte; conditions: red blood cells (erythrocytes), at 1 to 32 µg/mL, dose 1-32 µg/ml, read-out: Activity
Cell membrane [5] = test: Induction of cell membrane disruption in Pseudomonas aeruginosa ATCC 27853 assessed as increase in nucleotides leakage at 0.5 to 6 ug/ml incubated under agitation condition by UV absorption based analysis; type: subcellular; conditions: dose 0.5-6 µg/ml
Cell membrane [6] = test: Induction of outer membrane permeabilization in Pseudomonas aeruginosa ATCC 27853 assessed as increase in NPN uptake by measuring increase in fluorescence intensity at 1 ug/ml by NPN-dye based fluorescence analysis; conditions: dose 1.0 µg/ml
Staphylococcus aureus [7] = test: Antibacterial activity against Staphylococcus aureus 25923 assessed as inhibition of bacterial growth incubated for 24 hrs by CLSI protocol based two fold serial dilution method; type: functional
Staphylococcus aureus [8] = test: Antibacterial activity against Staphylococcus aureus assessed as inhibition of bacterial growth incubated for 24 hrs by CLSI protocol based two fold serial dilution method; type: functional
Cell membrane [9] = test: Induction of inner membrane permeabilization in Pseudomonas aeruginosa ATCC 27853 assessed as increase in PI uptake by measuring increase in fluorescence intensity at 1 to 8 ug/ml incubated for 30 mins by calcein-AM/PI staining based fluorescence microscopic analysis; conditions: dose 1-8 µg/ml
Enterococcus faecalis = test: Antibacterial activity against Enterococcus faecalis assessed as inhibition of bacterial growth incubated for 24 hrs by CLSI protocol based two fold serial dilution method; type: functional
Staphylococcus aureus [10] = test: Antibacterial activity against methicillin-resistant Staphylococcus aureus N315 assessed as inhibition of bacterial growth incubated for 24 hrs by CLSI protocol based two fold serial dilution method; type: functional
Acinetobacter baumannii = test: Antibacterial activity against Acinetobacter baumannii assessed as inhibition of bacterial growth incubated for 24 hrs by CLSI protocol based two fold serial dilution method; type: functional
HEK-293T = test: Cytotoxicity against human HEK293T cells assessed as cell viability at 0.5 to 64 ug/ml incubated for 24 hrs by MTT assay; type: toxicity, cell-based; conditions: dose 0.5-64 µg/ml
Escherichia coli [11] = test: Antibacterial activity against Escherichia coli assessed as inhibition of bacterial growth incubated for 24 hrs by CLSI protocol based two fold serial dilution method; type: functional
Klebsiella pneumoniae = test: Antibacterial activity against Klebsiella pneumonia assessed as inhibition of bacterial growth incubated for 24 hrs by CLSI protocol based two fold serial dilution method; type: functional
HeLa = test: Cytotoxicity against human HeLa cells assessed as cell viability at 0.5 to 64 ug/ml incubated for 24 hrs by MTT assay; type: toxicity, cell-based; conditions: dose 0.5-64 µg/ml
Staphylococcus aureus [12] = test: Antibacterial activity against Staphylococcus aureus 29213 assessed as inhibition of bacterial growth incubated for 24 hrs by CLSI protocol based two fold serial dilution method; type: functional
Staphylococcus aureus [13] = test: Antibacterial activity against methicillin-resistant Staphylococcus aureus N315 assessed as inhibition of bacterial growth at 0.5 to 16 ug/ml measured after 24 hrs by microplate reader assay; type: functional, organism-based; conditions: dose 0.5-16 µg/ml
Staphylococcus aureus [14] = test: Antibacterial activity against methicillin-resistant Staphylococcus aureus N315 assessed as increase in germicidal effect at 0.5 ug/ml measured after 7 hrs by microplate reader assay; type: functional, organism-based; conditions: dose 0.5 µg/ml
Escherichia coli [15] = test: Antibacterial activity against Escherichia coli 25922 assessed as inhibition of bacterial growth incubated for 24 hrs by CLSI protocol based two fold serial dilution method; type: functional
Pseudomonas aeruginosa [16] = test: Antibacterial activity against Pseudomonas aeruginosa assessed as inhibition of bacterial growth incubated for 24 hrs by CLSI protocol based two fold serial dilution method; type: functional
Staphylococcus aureus [17] = test: Antibacterial activity against methicillin-resistant Staphylococcus aureus N315 assessed as change in susceptibility at sub-MIC treated over 9 serial passages measured after 9 days by resistance development assay; type: functional, organism-based; conditions: time 9.0 day
Pseudomonas aeruginosa [18] = test: Antibacterial activity against Pseudomonas aeruginosa ATCC 27853 assessed as change in susceptibility at sub-MIC treated over 9 serial passages measured after 9 days by resistance development assay; type: functional, organism-based; conditions: time 9.0 day
Erythrocyte = test: Hemolytic activity in human RBC assessed as hemolysis rate at 1 to 32 ug/ml measured after 60 mins by microplate reader assay; type: toxicity, cell-based; conditions: 1 h, dose 1-32 µg/ml
Staphylococcus aureus [19] = test: Antibacterial activity against methicillin-resistant Staphylococcus aureus N315 assessed as increase in germicidal effect at 4 ug/ml measured after 7 hrs by microplate reader assay; type: functional, organism-based; conditions: dose 4.0 µg/ml

Row | Compound | Activity (Staphylococcus aureus [1]) | Activity (Cell membrane [2]) | MIC (Pseudomonas aeruginosa [3]) | hemolysis at 1 h [4] | Activity (Cell membrane [5]) | Activity (Cell membrane [6]) | MIC (Staphylococcus aureus [7]) | MIC (Staphylococcus aureus [8]) | Activity (Cell membrane [9]) | MIC (Enterococcus faecalis) | MIC (Staphylococcus aureus [10]) | MIC (Acinetobacter baumannii) | Activity (HEK-293T) | MIC (Escherichia coli [11]) | MIC (Klebsiella pneumoniae) | Activity (HeLa) | MIC (Staphylococcus aureus [12]) | Activity (Staphylococcus aureus [13]) | MIC (Escherichia coli [15]) | MIC (Pseudomonas aeruginosa [16]) | other results
1 | C=CCn1c2ccccc2c2c(OCc3nnn[nH]3)cccc21 | Active | Active | 0.5 µg/mL (≈ 1.64 µM) | < 3% | Active | Active | 64 µg/mL (≈ 210 µM) | 128 µg/mL (≈ 419 µM) | Active | 4 µg/mL (≈ 13.1 µM) | 2 µg/mL (≈ 6.55 µM) | 128 µg/mL (≈ 419 µM) | Non-Toxic | 1 µg/mL (≈ 3.28 µM) | 64 µg/mL (≈ 210 µM) | Non-Toxic | 32 µg/mL (≈ 105 µM) | Active | 32 µg/mL (≈ 105 µM) | 128 µg/mL (≈ 419 µM) | Activity (Staphylococcus aureus [14]): Active
2 | CCn1c2ccccc2c2c(OCc3nnn[nH]3)cccc21 | Active | Active | 1 µg/mL (≈ 3.41 µM) | < 3% | Active | Active | 32 µg/mL (≈ 109 µM) | 128 µg/mL (≈ 436 µM) | Active | 4 µg/mL (≈ 13.6 µM) | 2 µg/mL (≈ 6.82 µM) | 64 µg/mL (≈ 218 µM) | Non-Toxic | 8 µg/mL (≈ 27.3 µM) | 64 µg/mL (≈ 218 µM) | Non-Toxic | 32 µg/mL (≈ 109 µM) | Active | 64 µg/mL (≈ 218 µM) | 256 µg/mL (≈ 873 µM) | 
3 | Sc1nnc(COc2cccc3c2c2ccccc2n3CC2CCCC2)o1 |  |  | 0.25 µg/mL (≈ 0.659 µM) |  |  |  | 1 µg/mL (≈ 2.64 µM) | 256 µg/mL (≈ 675 µM) |  | 2 µg/mL (≈ 5.27 µM) | 0.25 µg/mL (≈ 0.659 µM) | 1 µg/mL (≈ 2.64 µM) |  | 1 µg/mL (≈ 2.64 µM) | 1 µg/mL (≈ 2.64 µM) |  | 8 µg/mL (≈ 21.1 µM) |  | 2 µg/mL (≈ 5.27 µM) | 256 µg/mL (≈ 675 µM) | Activity (Staphylococcus aureus [17]): Active; Activity (Pseudomonas aeruginosa [18]): Active
4 | C=CCn1c2ccccc2c2c(OCc3nnc(S)o3)cccc21 |  |  | 0.5 µg/mL (≈ 1.48 µM) |  |  |  | 4 µg/mL (≈ 11.9 µM) | 256 µg/mL (≈ 759 µM) |  | 64 µg/mL (≈ 190 µM) | 1 µg/mL (≈ 2.96 µM) | 8 µg/mL (≈ 23.7 µM) |  | 8 µg/mL (≈ 23.7 µM) | 4 µg/mL (≈ 11.9 µM) |  | 4 µg/mL (≈ 11.9 µM) |  | 8 µg/mL (≈ 23.7 µM) | 256 µg/mL (≈ 759 µM) | Activity (Pseudomonas aeruginosa [18]): Active
5 | Sc1nnc(Cn2c3ccccc3c3c(OCC4CCCCC4)cccc32)o1 | Active |  | 4 µg/mL (≈ 10.2 µM) |  |  |  | 4 µg/mL (≈ 10.2 µM) | 256 µg/mL (≈ 651 µM) |  | 4 µg/mL (≈ 10.2 µM) | 0.25 µg/mL (≈ 0.635 µM) | 0.5 µg/mL (≈ 1.27 µM) |  | 1 µg/mL (≈ 2.54 µM) | 4 µg/mL (≈ 10.2 µM) |  | 4 µg/mL (≈ 10.2 µM) | Active | 0.25 µg/mL (≈ 0.635 µM) | 128 µg/mL (≈ 325 µM) | Activity (Staphylococcus aureus [17]): Active; Activity (Erythrocyte): Toxic; Activity (Staphylococcus aureus [19]): Active
